How the values were obtained:
[1] = molecular target: T1, angiotensin II type 1 receptor (Oryctolagus cuniculus, UniProt P34976); assay: Angiotensin II antagonistic activity in isolated rabbit blood vessels (angiotensin II-induced contraction of thoracic aorta ring); conditions: 0.1 μM compound, angiotensin II (10 nM)-induced contraction, read-out: Angiotensin II activity inhibition rate (%) at 0.1 μM concentration
T1 construct: By using a specimen of isolated rabbit blood vessels; from tissue; host or cells: rabbit thoracic aorta ring (New Zealand White, male)
T1 sequence (P34976 1-359): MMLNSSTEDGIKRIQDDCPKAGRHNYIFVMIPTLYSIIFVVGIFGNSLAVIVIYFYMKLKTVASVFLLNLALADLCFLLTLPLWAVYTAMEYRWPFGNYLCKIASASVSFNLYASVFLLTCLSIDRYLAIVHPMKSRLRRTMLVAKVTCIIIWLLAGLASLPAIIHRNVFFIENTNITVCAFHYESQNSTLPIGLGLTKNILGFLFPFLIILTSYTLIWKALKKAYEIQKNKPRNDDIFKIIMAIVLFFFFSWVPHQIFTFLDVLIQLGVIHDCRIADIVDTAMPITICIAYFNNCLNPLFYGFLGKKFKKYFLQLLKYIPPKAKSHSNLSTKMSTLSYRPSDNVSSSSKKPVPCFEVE
Description: By using a specimen of isolated rabbit blood vessels, antagonistic activity of the compounds of the invention against angiotensin II type 1 receptor was estimated from a dose-response curve of angiotensin II-induced blood vessel contraction. Specifically, the specimen of thoracic aorta ring of a rabbit (New Zealand White: male, 2.4 to 3.0 kg) was suspended in a magnus bath filled with Krebs-Henseleite buffer (composition: 118 mM NaCl, 4.7 mM KCl, 2.55 mM CaCl2, 1.18 mM MgSO4, 1.18 mM KH2PO4, 24.88 mM NaHCO3, and 11.1 mM D-glucose), and angiotensin II (10 nM)-induced contraction was obtained in the presence of the compounds of each example (1 nmol to 10 μmol/L). During the measurement, the inside temperature of the magnus bath was maintained at 37° C. and the bath was continuously ventilated with a sufficient amount of mixed gas (95% O2 and 5% CO2). The angiotensin II-induced contraction was converted into a relative value (%) that is based on the angiotensin II (10 nM)-induced contraction in the absence of the compounds of each example. From the concentration-response curve obtained therefrom, 50% inhibition concentration (IC50 value) was calculated by using SAS Preclinical Package Ver 5.0 (trade name, manufactured by SAS institute Japan Co., Tokyo, Japan), which is a statistical analysis program.

human PPARγ2 = molecular target: T2, human PPARγ2 (Homo sapiens, UniProt P37231); assay: PPARγ activation activity, Gal4-PPARγ2 LBD luciferase transfection assay in COST cells; format: cell-based; conditions: Gal4-human PPARγ2 LBD luciferase reporter, 16 hours, rosiglitazone = 100%
T2 construct: the amino acids 182 to 505 of human PPARγ2; expressed in transfected cells
T2 sequence (P37231 182-505): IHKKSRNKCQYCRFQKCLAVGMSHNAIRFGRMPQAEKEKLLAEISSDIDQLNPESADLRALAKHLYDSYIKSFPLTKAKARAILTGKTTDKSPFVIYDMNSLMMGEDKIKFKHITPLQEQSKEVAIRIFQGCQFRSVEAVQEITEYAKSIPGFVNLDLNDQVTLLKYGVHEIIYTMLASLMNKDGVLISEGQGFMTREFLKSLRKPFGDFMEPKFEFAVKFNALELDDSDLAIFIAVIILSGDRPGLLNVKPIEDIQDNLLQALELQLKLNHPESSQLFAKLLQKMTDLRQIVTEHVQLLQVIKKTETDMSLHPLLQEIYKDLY
Description: The agonistic activity of the compounds of the invention on PPARγ was measured based on the transfection assay using COST cells (DS Pharma Biomedical Co., Ltd., Osaka, Japan), which are the cell line derived from the kidney of the African green monkey. COST cells were cultured under 5% CO2 concentration, and DMEM medium containing 10% fetal bovine serum, glutamic acid, and antibiotics was used as a medium.
As an expression vector, a chimera in which DNA binding domain of Gal4, which is a yeast transcription factor, and ligand binding domain of human PPARγ2 are fused, i.e., a fused product between the amino acids 1 to 147 of Gal4 transcription factor and the amino acids 182 to 505 of human PPARγ2, was used. Furthermore, as a reporter vector, a firefly luciferase containing five copies of Gal4 recognition sequence in the promoter region was used. Plasmid transfection to the cells was performed according to a method which uses jetPEI (trade name, manufactured by Funakoshi Co., Ltd., Tokyo, Japan). Furthermore, β-galactosidase expression vector was employed as an internal standard.
After the transfection of the cells, the medium was replaced with a DMEM medium (containing 1% serum) added with the compound, and the cells were further cultured for 16 hours. After that, the luciferase activity and β-galactosidase activity in the cell lysis solution were measured.
For the present test, dimethyl sulfoxide (DMSO) was used for dissolution and dilution of the test compounds, and during the cell treatment, the DMSO concentration in DMEM medium (containing 1% serum) was adjusted to 0.1%. As a positive compound, rosiglitazone (trade name, manufactured by ALEXIS Corporation, Switzerland) was used. The luciferase activity (%) of the test compounds (1 to 30 μmol/L) was calculated when the luciferase activity of rosiglitazone (3 to 10 μmol/L) is 100% and the luciferase activity in the absence of the test compound is 0%. The 50% effective concentration of the test compound (EC50, 50% effect concentration) was calculated by using SAS Preclinical Package Ver 5.0 (trade name, manufactured by SAS institute Japan Co., Tokyo, Japan), which is a statistical analysis program.
Under the same condition, the PPARγ activation activity of telmisartan, i.e., EC50, was 1 to 5 μM. In addition, it was confirmed that compounds of Examples not shown in Table 2 also have PPARγ activation activity at a concentration of 30 μM.

| inhibition at 0.1 µM [1] | EC50 (human PPARγ2) | Structure (SMILES) |
| --- | --- | --- |
| – | 1360 nM | CCCCc1nc(C(C)C)n(-c2ncc(OCC)cn2)c(=O)c1Cc1ccc(-c2ccccc2S(=O)(=O)NC(=O)C2CC2)cc1 [Example 14, N-{4′-{[4-butyl-1-(5-ethoxypyrimidin-2-yl)-2-isopropyl-6-oxo-1,6-dihydropyrimidin-5-yl)methyl)biphenyl-2-ylsulfonyl]cyclopropanecarboxamide] |
| – | 1050 nM | CCCCc1nc(C2CC2)n(-c2ncc(OC)cn2)c(=O)c1Cc1ccc(-c2ccccc2S(=O)(=O)NC(=O)C2CC2)cc1 [Example 15, N-{4′-{[4-butyl-2-cyclopropyl-1-(5-methoxypyrimidin-2-yl)-6-oxo-1,6-dihydropyrimidin-5-yl)methyl)biphenyl-2-ylsulfonyl]cyclopropanecarboxamide] |
| – | 2350 nM | CCCCc1nc(C2CC2)n(-c2ncc(OCC)cn2)c(=O)c1Cc1ccc(-c2ccccc2S(=O)(=O)NC(=O)C2CC2)cc1 [Example 16, N-{4′-{[4-butyl-2-cyclopropyl-1-(5-ethoxypyrimidin-2-yl)-6-oxo-1,6-dihydropyrimidin-5-yl]methyl}biphenyl-2-ylsulfonyl}cyclopropanecarboxamide] |
| – | 960 nM | CCCCc1nc(C2CCC2)n(-c2ncc(OCC)cn2)c(=O)c1Cc1ccc(-c2ccccc2S(=O)(=O)NC(=O)C2CC2)cc1 [Example 17, N-{4′-{[4-butyl-2-cyclobutyl-1-(5-ethoxypyrimidin-2-yl)-6-oxo-1,6-dihydropyrimidin-5-yl]methyl}biphenyl-2-ylsulfonyl}cyclopropanecarboxamide] |
| – | 710 nM | CCCCc1nc(C2CCCC2)n(-c2ncc(OCC)cn2)c(=O)c1Cc1ccc(-c2ccccc2S(=O)(=O)NC(=O)C2CC2)cc1 [Example 18, N-{4′-{[4-butyl-2-cyclopentyl-1-(5-ethoxypyrimidin-2-yl)-6-oxo-1,6-dihydropyrimidin-5-yl]methyl}biphenyl-2-ylsulfonyl}cyclopropanecarboxamide] |
| – | 510 nM | CCCCc1nc(C2CCCCC2)n(-c2ncc(OCC)cn2)c(=O)c1Cc1ccc(-c2ccccc2S(=O)(=O)NC(=O)C2CC2)cc1 [Example 19, N-{4′-{[4-butyl-2-cyclohexyl-1-(5-ethoxypyrimidin-2-yl)-6-oxo-1,6-dihydropyrimidin-5-yl]methyl}biphenyl-2-ylsulfonyl}cyclopropanecarboxamide] |

More lines, now with the values behind:

| Structure (SMILES) | inhibition at 0.1 µM [1] | EC50 (human PPARγ2) |
| --- | --- | --- |
| CCCCc1nc(C)n(-c2ncc(OC)cn2)c(=O)c1Cc1ccc(-c2ccccc2S(=O)(=O)NC(=O)CC)cc1 [Example 1, N-{4′-{[4-butyl-1-(5-methoxypyrimidin-2-yl)-2-methyl-6-oxo-1,6-dihydropyrimidin-5-yl]methyl}biphenyl-2-ylsulfonyl}propionamide] | 71.7% | – |
| CCCCCC(=O)NS(=O)(=O)c1ccccc1-c1ccc(Cc2c(CCCC)nc(C)n(-c3ncc(OC)cn3)c2=O)cc1 [Example 2, N-{4′-{[4-butyl-1-(5-methoxypyrimidin-2-yl)-2-methyl-6-oxo-1,6-dihydropyrimidin-5-yl]methyl}biphenyl-2-ylsulfonyl}hexanamide] | 91.9% | – |
| CCCCc1nc(C)n(-c2ncc(OC)cn2)c(=O)c1Cc1ccc(-c2ccccc2S(=O)(=O)NC(=O)C2CC2)cc1 [Example 3, N-{4′-{[4-butyl-1-(5-methoxypyrimidin-2-yl)-2-methyl-6-oxo-1,6-dihydropyrimidin-5-yl]methyl}biphenyl-2-ylsulfonyl}cyclopropanecarboxamide] | 90% | – |
| CCCCc1nc(C)n(-c2ncc(OC)cn2)c(=O)c1Cc1ccc(-c2ccccc2S(=O)(=O)NC(=O)C2CCCC2)cc1 [Example 4, N-{4′-{[4-butyl-1-(5-methoxypyrimidin-2-yl)-2-methyl-6-oxo-1,6-dihydropyrimidin-5-yl]methyl}biphenyl-2-ylsulfonyl}cyclopentanecarboxamide] | 100% | – |
| CCCCc1nc(C)n(-c2ncc(OC)cn2)c(=O)c1Cc1ccc(-c2ccccc2S(=O)(=O)NC(=O)C2CCCCC2)cc1 [Example 5, N-{4′-{[4-butyl-1-(5-methoxypyrimidin-2-yl)-2-methyl-6-oxo-1,6-dihydropyrimidin-5-yl]methyl}biphenyl-2-ylsulfonyl}cyclohexanecarboxamide] | 92.4% | – |
| CCCCCC(=O)NS(=O)(=O)c1ccccc1-c1ccc(Cc2c(CCCC)nc(C)n(-c3ncc(OCC)cn3)c2=O)cc1 [Example 7, N-{4′-{[4-butyl-1-(5-ethoxypyrimidin-2-yl)-2-methyl-6-oxo-1,6-dihydropyrimidin-5-yl]methyl}biphenyl-2-ylsulfonyl}hexanamide] | 89.3% | 2210 nM |
| CCCCc1nc(C)n(-c2ncc(OCC)cn2)c(=O)c1Cc1ccc(-c2ccccc2S(=O)(=O)NC(=O)C2CC2)cc1 [Example 8, N-{4′-{[4-butyl-1-(5-ethoxypyrimidin-2-yl)-2-methyl-6-oxo-1,6-dihydropyrimidin-5-yl]methyl}biphenyl-2-ylsulfonyl}cyclopropanecarboxamide] | 77.5% | 3690 nM |
| CCCCc1nc(C)n(-c2ncc(OCC)cn2)c(=O)c1Cc1ccc(-c2ccccc2S(=O)(=O)NC(=O)C2CCCCC2)cc1 [Example 10, N-{4′-{[4-butyl-1-(5-ethoxypyrimidin-2-yl)-2-methyl-6-oxo-1,6-dihydropyrimidin-5-yl]methyl}biphenyl-2-ylsulfonyl}cyclohexanecarboxamide] | 81.9% | – |
| CCCCc1nc(C)n(-c2ncc(OC(F)F)cn2)c(=O)c1Cc1ccc(-c2ccccc2S(=O)(=O)NC(=O)C2CC2)cc1 [Example 11, N-{4′-{{4-butyl-1-[5-(difluoromethoxy)pyrimidin-2-yl]-2-methyl-6-oxo-1,6-dihydropyrimidin-5-yl}methyl}biphenyl-2-ylsulfonyl}cyclopropanecarboxamide] | – | 3370 nM |
| CCCCc1nc(CC)n(-c2ncc(OCC)cn2)c(=O)c1Cc1ccc(-c2ccccc2S(=O)(=O)NC(=O)C2CC2)cc1 [Example 13, N-{4′-{[4-butyl-1-(5-ethoxypyrimidin-2-yl)-2-ethyl-6-oxo-1,6-dihydropyrimidin-5-yl]methyl}biphenyl-2-ylsulfonyl}cyclopropanecarboxamide] | – | 2790 nM |
| CCCc1nc2c(C)cc(-c3nc4ccccc4n3C)cc2n1Cc1ccc(-c2ccccc2C(=O)O)cc1 [telmisartan, reference compound] | – | 1000 to 5000 nM |

Source: patent US20120122906A1, “NOVEL SULFONAMIDE DERIVATIVE AND PHARMACEUTICAL PRODUCT CONTAINING SAME” (KOWA COMPANY, LTD., priority 2009, published 2012)
